Reference: patent US20210379056A1, “SUBSTITUTED PYRAZOLE FUSED RING DERIVATIVE, PREPARATION METHOD THEREFOR, AND APPLICATION THEREOF” (Applied Pharmaceutical Science, Inc., priority 2018, published 2021)
Like-named read-outs stand apart in the source and are kept apart here.

What was measured:
[1] = system: RET wild-type, mutant and/or fusion-type; experiment: Overall statement on RET inhibitory activity (summary of Table 3); conditions: statement in words summarising Table 3
Description: As shown in the above table, the example compounds of the present disclosure have improved inhibitory activity against RET wild-type, mutant and/or fusion-type.

Ret wt = biological target: T1, Ret wt (Homo sapiens, UniProt P07949); experiment: HTRF kinase activity test, RET wild type; format: biochemical
T1 construct: purchased Invitrogen PV3082
T1 sequence (P07949 29-1114): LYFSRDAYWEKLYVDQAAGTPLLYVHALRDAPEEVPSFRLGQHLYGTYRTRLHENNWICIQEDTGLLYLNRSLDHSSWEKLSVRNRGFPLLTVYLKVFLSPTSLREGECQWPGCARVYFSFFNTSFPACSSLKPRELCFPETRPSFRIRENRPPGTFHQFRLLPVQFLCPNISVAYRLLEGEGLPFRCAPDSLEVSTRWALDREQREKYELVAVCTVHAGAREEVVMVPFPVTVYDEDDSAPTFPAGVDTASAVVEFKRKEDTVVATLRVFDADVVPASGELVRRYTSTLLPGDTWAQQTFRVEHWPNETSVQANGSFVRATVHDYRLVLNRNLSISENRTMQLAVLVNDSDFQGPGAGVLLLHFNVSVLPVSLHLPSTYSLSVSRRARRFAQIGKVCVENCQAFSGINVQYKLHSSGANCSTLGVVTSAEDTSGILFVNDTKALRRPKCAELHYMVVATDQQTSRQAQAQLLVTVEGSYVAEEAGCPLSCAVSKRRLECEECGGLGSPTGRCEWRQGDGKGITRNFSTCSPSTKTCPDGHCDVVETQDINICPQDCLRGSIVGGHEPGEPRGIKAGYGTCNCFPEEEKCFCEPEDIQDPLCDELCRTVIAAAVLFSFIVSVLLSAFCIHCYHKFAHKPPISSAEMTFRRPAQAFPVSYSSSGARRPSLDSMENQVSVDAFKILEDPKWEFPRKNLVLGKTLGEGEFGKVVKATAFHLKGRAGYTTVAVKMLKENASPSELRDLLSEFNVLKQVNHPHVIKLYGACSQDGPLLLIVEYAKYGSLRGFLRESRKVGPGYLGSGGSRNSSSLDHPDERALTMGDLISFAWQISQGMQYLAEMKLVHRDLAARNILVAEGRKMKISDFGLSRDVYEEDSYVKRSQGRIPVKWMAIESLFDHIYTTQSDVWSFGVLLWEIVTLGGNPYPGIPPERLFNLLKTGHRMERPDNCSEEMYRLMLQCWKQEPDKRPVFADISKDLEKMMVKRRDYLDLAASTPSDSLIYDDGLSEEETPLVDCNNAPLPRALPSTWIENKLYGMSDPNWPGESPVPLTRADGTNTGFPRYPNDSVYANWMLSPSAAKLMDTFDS

TT Cell = experiment: Cell inhibitory activity test (CCK8); format: cell-based; conditions: Homo sapiens, TT, Table 3, 72 hours incubation
Outline: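 Cells seeded at 4000/well, pre-incubated 24 h (37 °C, 5% CO2), then exposed to graded compound concentrations for 72 h. Viability read by CCK8 at 450 nm after 1-2 h; IC50 fitted from concentration-absorbance data.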

RET (V804L), activated = biological target: T2, RET (V804L), activated (Homo sapiens, UniProt P07949, V804L); experiment: HTRF kinase activity test, RET V804L; format: biochemical; conditions: Table 2
T2 construct: purchased Signalchem R02-12BG-10
T2 sequence (P07949 29-1114 V804L): as the sequence (P07949 29-1114) above, with V776L counted along it
Experimental: This test combined peptide substrates and a single proprietary monoclonal antibody with HTRF technology, which was a highly sensitive and stable technology for detecting molecular interactions of proteins. The enzyme phosphorylates the substrate, then the Eu-labeled antibody binds to the phosphorylated substrate, and streptavidin-XL665 binds to all substrates. The TR-FRET signal was generated by the HTRF principle. […] Based on this, the inhibitory effect was evaluated.
(§1) The other compounds were diluted 3-fold gradiently with DMSO from the 10 mM stock solution to a total of 10 concentrations respectively.
(§2) Adding 4 volumes of distilled water to 1 volume of enzyme buffer 5×; 5 mM MgCl2; 1 mM DTT.
(§3) b) centrifuging the compound plate for 1 minute at 1000 g.
(§4) c) sealing the test board.
(§5) f) adding 4 μl of 1× kinase buffer to each well of the test plate, centrifuging the sample plate at 1000 g for 30 seconds, and placing it at room temperature for 10 minutes.
g) preparing a solution of 5× TK-substrate-biotin ([…]) in kinase buffer and 5×ATP (50 μM) in kinase buffer respectively. […]
(§6) The inhibition rate % was calculated as follows:
(§7) Inhibition rate %=[1−(fluorescence signal value of test compound−fluorescence signal value of positive control)/(average ratio of negative control−average ratio of positive control)]*100%
Ratio: generated from the measured fluorescence signal value […]

RET (V804M) = biological target: T3, RET (V804M) (Homo sapiens, UniProt P07949, V804M); experiment: HTRF kinase activity test, RET V804M; format: biochemical; conditions: Table 3; read-out: RET Enzyme (V804M) IC50
T3 construct: purchased Signalchem R02-12GG
T3 sequence (P07949 29-1114 V804M): as the sequence (P07949 29-1114) above, with V776M counted along it
Experimental: This test combined peptide substrates and a single proprietary monoclonal antibody with HTRF technology, which was a highly sensitive and stable technology for detecting molecular interactions of proteins. The enzyme phosphorylates the substrate, then the Eu-labeled antibody binds to the phosphorylated substrate, and streptavidin-XL665 binds to all substrates. The TR-FRET signal was generated by the HTRF principle. Once the inhibitor (test compound) was added, a weaker TR-FRET signal is obtained. Based on this, the inhibitory effect was evaluated.
as §1, §2
a) Transferring 10 nl of the compound dilution (prepared in 5.2) to each well of the test plate (784075, Greiner);
as §3, §4
d) preparing 5×Ret wt (0.2 ng/μl) and 5×Ret V804L (0.5 ng/μl)/5×Ret V804M (0.5 ng/μl) in 1× kinase buffer respectively.
e) adding 2 μl of 5×Ret wt or 2 μl of Ret V804L/RET V804M to a 384-well test plate (784075, Greiner).
as §5
g) preparing a solution of 5× TK-substrate-biotin ([…]) in kinase buffer and 5×ATP (50 μM) in kinase buffer respectively.
h) starting the reaction by adding 2 μl STK-substrate-biotin and 2 μl ATP (prepared in the step g).
i) centrifuging the sample plate for 30 seconds at 1000 g. Sealing the test board and placing it at room temperature for 30 minutes.
j) preparing 4×Sa-XL 665 (250 nM) in HTRF detection buffer.
k) adding 5 μl of Sa-XL 665 and 5 μl of TK-antibody-Cryptate (prepared in the step i) to each well of the test plate.
) centrifuging at 1000 g for 30 seconds and placing it at room temperature for 1 hour.
m) reading the fluorescence signal values at 615 nm (Cryptate) and 665 nm (XL665) on the Envision 2104 plate reader.
Calculating the ratio of each hole (665 nm/615 nm).
as §6, §7
Ratio: generated from the measured fluorescence signal value
The average ratio of the positive control is the average ratio of the positive control (200 nM AT13148) in the sample plate;
The average ratio of negative controls is the average ratio of negative controls (0.1% DMSO) in the sample plate.
GraphPad 6.0 was used to fit the logarithm of the % inhibition rate and the compound concentration into a nonlinear regression (dose response−variable slope) to calculate the IC50 value.

[2] = Table 2, read-out: IC50 (nM) RET wt
[3] = Table 3, read-out: RET Enzyme (wild type) IC50

Row | IC50 (Ret wt; [2]) [nM] | IC50 (Ret wt; [3]) [nM] | IC50 (RET (V804L), activated) [nM] | Compound | inhibitory activity against RET wild-type, mutant and/or fusion-type [1] | IC50 (TT Cell) [nM] | IC50 (RET (V804M)) [nM]
1 | 0.325 | < 1 | 0.124 | Cn1cc(-c2cc(-c3ccc(N4CCN(C(=O)Cc5ccc(F)cn5)CC4)nc3)c3c(C#N)c(N)nn3c2)cn1 [APS069, 2-amino-4-(6-(4-(2-(5-fluoropyridin-2-yl)acetyl)piperazin-1-yl)pyridin-3-yl)-6-(1-methyl-1H-pyrazol-4-yl)pyrazolo[1,5-a]pyridine-3-carbonitrile] | excellent activity | 28.8 | –
2 | 0.418 | < 1 | 0.0759 | Cn1cc(-c2cc(-c3ccc(N4CCC(Cc5ccccn5)CC4)nc3)c3c(C#N)c(N)nn3c2)cn1 [APS070, 2-amino-6-(1-methyl-1H-pyrazol-4-yl)-4-(6-(4-(pyridin-2-yl-methyl)piperidin-1-yl)pyridin-3-yl)pyrazolo[1,5-a]pyridine-3-carbonitrile] | excellent activity | 15.6 | –

Row | Compound | IC50 (Ret wt; [2]) [nM] | IC50 (Ret wt; [3]) [nM] | IC50 (RET (V804L), activated) [nM] | inhibitory activity against RET wild-type, mutant and/or fusion-type [1] | IC50 (TT Cell) [nM] | IC50 (RET (V804M)) [nM]
3 | COc1ccc(CN2C3CC2CN(c2ccc(-c4cc(OCCF)cn5nc(N)c(C#N)c45)cn2)C3)cn1 [APS119, 2-amino-6-(2-fluoroethoxy)-4-(6-(6-((6-methoxypyridin-3-yl)methyl)-3,6-diazabicyclo[3.1.1]heptan-3-yl)pyridin-3-yl)pyrazolo[1,5-a]pyridine-3-carbonitrile] | – | < 1 | – | excellent activity | 6.6 | < 1
